According to the NIST ThermoML archive (doi:10.1021/je200833s):
Numbers after ± are expanded uncertainties.

assay: molar enthalpy of vaporization or sublimation; conditions: 298.15 K; Crystal; Calvet

Row | SMILES | molar enthalpy [kJ/mol]
1 | Oc1ccccc1I [2-iodophenol] | 76.1 ± 2.8
2 | Oc1ccc(I)cc1 [4-iodophenol] | 88.7 ± 3
3 | Oc1cccc(I)c1 [m-iodophenol] | 88.4 ± 3.2
